Data on eight compounds can be found in ChEMBL document CHEMBL1201862, “PubChem BioAssay data set” (2004).

Calls of active or inactive are those of the source.

Assay [1] is described as follows: Late stage results for the probe development effort to identify inhibitors of Plasmodium falciparum gametocytes: Luminescence-based cell-based high throughput dose response assay to identify inhibitors of viability of late stage Plasmodium falciparum gametocytes. The class given is functional.
Assay [2] in a line: Fluorescence Cell-Based Dose Response to Identify Inhibitors of Thrombin Receptor-Activating Peptide SFLLRN-Mediated P-Selectin Induction on Platelets. [Related pubchem assays: 1663 (Primary HTS), 1889 (retest at dose ), 1891 (counterscreen), 1678 (Project Summary)]. The format is functional.
Assay [3] can be described thus: inhibitors of firefly luciferase expression or activity, dose response, H4 neuroglioma cells, luminescence (AID 1990). The class given is functional, cell-based.
The target in assay [4] is Luciferin 4-monooxygenase (Photinus pyralis, UniProt P08659). As to the kind of experiment: firefly luciferase enzyme inhibitors, dose response, biochemical, luminescence (AID 1891).
Assay [5] is described as follows: Luminescence Cell-Based Dose Response HTS to Identify Inhibitors of 5'UTR Stem-Loop Driven Prion Protein mRNA Translation in H4 Neuroglioblastoma Cells. [Related pubchem assays: 1827 (Project Summary), 1813 (Primary HTS)]. The format is functional.
The nature of assay [6]: Luminescence Cell-Based Dose Confirmation HTS to Identify Inhibitors of Platelet Dense Granule Release. [Related pubchem assays: 1663 (Primary HTS), 1678 (Summary of Project)]. The class given is functional.
A short description of assay [7]: inhibitors of SNCA 5'UTR-driven reporter translation, confirmation, H4 neuroglioma cells, luminescence (AID 1988). The class given is functional, cell-based.
The nature of assay [8]: inhibitors of Vif binding to APOBEC3G peptide, primary screen, biochemical, TR-FRET, GST-Vif 1-94, biotin-A3G peptide, dose response retest (AID 1117319).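 Note: TR-FRET signal of purified GST-Vif binding a biotinylated A3G peptide; inhibitors lower the FRET signal by blocking Vif and A3G binding.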 The format is functional.
The nature of assay [9]: Glucagon-like peptide 1 release potency, NCI-H716 cell line, dose-response, half-maximal inhibitory concentration (AID 1117344). The format is functional, cell-based.
Assay [10] can be described thus: half-maximal inhibitory concentration for glucagon-like peptide-1 release, STC-1 cell line, dose-response (AID 1117345). The format is functional, cell-based.
The target in the next assay is Beta-galactosidase (Escherichia coli, UniProt Q8VNN2). As to the kind of experiment: beta-galactosidase enzyme inhibitors and activators, dose response, artefact control for CCR6 antagonist project, biochemical, E. coli enzyme, set 3 (AID 504712). The format is functional.
Assay [11] addresses DNA (cytosine-5)-methyltransferase 1 (Homo sapiens, UniProt P26358). Briefly: DNMT1 methyltransferase inhibitors, confirmation, biochemical, fluorescent molecular beacon (AID 602386). The class given is functional.
Another assay has as its target Phospholipase A2 (Homo sapiens, UniProt P04054). The class given is functional.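 Note: confirmatory dose-response counterscreen on phospholipase A2, testing hits that came from an ultra-high-throughput screen for ATG4B inhibitors.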
The target in assay [12] is Induced myeloid leukemia cell differentiation protein Mcl-1 (Homo sapiens, UniProt Q07820). The format is functional.
The target in another assay is T1, Bcl-2-like protein 10 (Homo sapiens, UniProt Q9HD36).
T1 sequence (Q9HD36 whole entry): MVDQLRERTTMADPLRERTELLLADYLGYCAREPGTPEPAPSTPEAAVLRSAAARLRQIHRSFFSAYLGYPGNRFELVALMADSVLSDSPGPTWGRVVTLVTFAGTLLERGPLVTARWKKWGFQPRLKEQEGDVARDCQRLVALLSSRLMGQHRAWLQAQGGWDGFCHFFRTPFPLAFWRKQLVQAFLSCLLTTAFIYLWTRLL
As to the kind of experiment: displacers of TR3 peptide from Bcl-B, primary screen, selectivity assay for Bfl-1 inhibitor project, biochemical, fluorescence polarization, FITC-TR3 peptide (AID 748).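 Note: fluorescence polarization from a fluorescein-labelled TR3 peptide binding purified Bcl-B.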

A further assay deals with Genome polyprotein (Hepatitis C virus, UniProt Q2Q167). Briefly: HCV core protein dimerization inhibitors, dose response, biochemical, TR-FRET (AID 2159).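 Note: blocks dimerization of HCV core protein measured by TR-FRET between tagged core106 pairs.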 More on the design: species or system Hepacivirus hominis.
The subject of assay [13] is Streptococcus sp. 'group A'. As to the kind of experiment: growth inhibition of control SK(-) GAS strain, dose response, counter-screen for streptokinase expression inhibitor project, luminescence, kanamycin, BacTiterGlo, confirmation (AID 1900). The format is functional, organism-based.
The next assay deals with Streptococcus. Briefly: Group A Streptococcus viability loss, dose response, counter-screen for streptokinase expression inhibitor project, luminescence, BacTiterGlo (AID 1915).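 Note: potency for reduction of bacterial viability or growth.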 The class given is functional, organism-based.
The target of a further assay is T2, Cysteine protease ATG4B (Homo sapiens, UniProt Q9Y4P1).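 Note: Fluorescence-based dose-response confirmation assay measuring inhibition of ATG4B activity.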
T2 sequence (Q9Y4P1 whole entry): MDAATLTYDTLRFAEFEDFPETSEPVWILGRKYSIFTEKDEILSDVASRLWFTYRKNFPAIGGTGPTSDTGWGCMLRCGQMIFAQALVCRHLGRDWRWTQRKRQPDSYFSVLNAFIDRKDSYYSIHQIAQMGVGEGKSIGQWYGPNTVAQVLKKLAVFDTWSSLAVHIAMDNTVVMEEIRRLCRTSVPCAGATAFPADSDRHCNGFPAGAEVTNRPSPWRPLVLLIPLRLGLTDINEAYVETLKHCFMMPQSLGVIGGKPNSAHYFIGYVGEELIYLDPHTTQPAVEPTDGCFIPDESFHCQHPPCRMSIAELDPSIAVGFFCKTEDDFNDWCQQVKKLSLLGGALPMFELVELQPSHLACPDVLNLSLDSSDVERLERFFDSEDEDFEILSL
The format is functional.

In another assay the target is NADPH oxidase 1 (Homo sapiens, UniProt Q9Y5S8). As to the kind of experiment: Late-stage luminescence-based cell-based dose response assay to identify inhibitors of NADPH oxidase 1 (NOX1): Synthesized analogs. The class given is functional.
For assay [14], the target named is Complement C1s subcomponent (Homo sapiens, UniProt P09871). Briefly: Complement C1s ELISA. [Related pubchem assays: 538, 787 ]. The format is functional.
The next assay addresses Prothrombin (Homo sapiens, UniProt P00734). Briefly: Thrombin 1536 HTS Dose Response Confirmation. [Related pubchem assays: 1046 (Thrombin 1536 HTS; hits were confirmed in this assay)]. The class given is functional.
Assay [15] concerns Vero. Briefly: cells. The format is functional. The note with it: Chlorocebus sabaeus.
The test system of assay [16] is Vero. As to the kind of experiment: West Nile virus antiviral activity, cell-based, CPE readout (AID 1621). The format is functional. Particulars: Chlorocebus sabaeus.
Assay [17] has as its system Vero. As to the kind of experiment: cells. The class given is functional, cell-based. The note with it: Chlorocebus sabaeus.

Chain of NADPH oxidase 1 (Q9Y5S8 whole entry): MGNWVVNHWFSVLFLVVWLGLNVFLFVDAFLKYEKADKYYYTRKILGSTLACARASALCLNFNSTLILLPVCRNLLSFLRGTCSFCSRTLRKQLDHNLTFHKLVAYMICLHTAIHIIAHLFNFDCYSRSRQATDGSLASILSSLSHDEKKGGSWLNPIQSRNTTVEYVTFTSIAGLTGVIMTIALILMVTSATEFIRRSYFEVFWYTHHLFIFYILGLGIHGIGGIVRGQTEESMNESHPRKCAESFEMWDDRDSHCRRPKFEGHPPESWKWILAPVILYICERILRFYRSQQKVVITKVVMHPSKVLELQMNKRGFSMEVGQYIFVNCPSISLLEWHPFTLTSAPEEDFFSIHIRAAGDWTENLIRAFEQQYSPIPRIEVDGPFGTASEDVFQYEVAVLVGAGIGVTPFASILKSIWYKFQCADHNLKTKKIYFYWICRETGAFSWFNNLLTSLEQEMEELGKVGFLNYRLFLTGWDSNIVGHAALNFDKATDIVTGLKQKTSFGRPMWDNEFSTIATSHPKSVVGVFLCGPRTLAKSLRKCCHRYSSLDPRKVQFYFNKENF
Chain of Induced myeloid leukemia cell differentiation protein Mcl-1 (Q07820 whole entry): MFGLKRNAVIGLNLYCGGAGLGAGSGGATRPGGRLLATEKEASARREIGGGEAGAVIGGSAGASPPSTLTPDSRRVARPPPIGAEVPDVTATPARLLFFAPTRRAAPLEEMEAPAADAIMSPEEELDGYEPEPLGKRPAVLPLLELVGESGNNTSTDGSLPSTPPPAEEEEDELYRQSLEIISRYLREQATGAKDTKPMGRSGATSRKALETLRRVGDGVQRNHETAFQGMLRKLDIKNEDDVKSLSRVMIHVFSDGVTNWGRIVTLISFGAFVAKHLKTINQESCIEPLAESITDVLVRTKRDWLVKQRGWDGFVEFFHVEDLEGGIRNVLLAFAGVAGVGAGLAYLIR
Chain of Luciferin 4-monooxygenase (P08659 whole entry): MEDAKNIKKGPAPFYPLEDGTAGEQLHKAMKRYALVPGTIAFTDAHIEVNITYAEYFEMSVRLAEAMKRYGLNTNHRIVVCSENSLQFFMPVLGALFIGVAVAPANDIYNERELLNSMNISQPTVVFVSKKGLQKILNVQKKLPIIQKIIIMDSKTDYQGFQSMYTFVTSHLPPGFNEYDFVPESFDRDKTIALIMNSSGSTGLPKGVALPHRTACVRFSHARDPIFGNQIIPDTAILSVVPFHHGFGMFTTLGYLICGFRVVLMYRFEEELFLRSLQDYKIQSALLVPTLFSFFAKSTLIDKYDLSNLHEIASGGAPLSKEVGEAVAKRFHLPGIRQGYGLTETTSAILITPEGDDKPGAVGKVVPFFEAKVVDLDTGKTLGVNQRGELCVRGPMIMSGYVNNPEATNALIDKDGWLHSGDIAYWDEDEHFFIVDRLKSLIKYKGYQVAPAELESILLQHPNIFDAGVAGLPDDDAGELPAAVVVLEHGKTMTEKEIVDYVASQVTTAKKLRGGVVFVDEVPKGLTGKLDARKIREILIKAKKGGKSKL
Chain of Beta-galactosidase (Q8VNN2 whole entry): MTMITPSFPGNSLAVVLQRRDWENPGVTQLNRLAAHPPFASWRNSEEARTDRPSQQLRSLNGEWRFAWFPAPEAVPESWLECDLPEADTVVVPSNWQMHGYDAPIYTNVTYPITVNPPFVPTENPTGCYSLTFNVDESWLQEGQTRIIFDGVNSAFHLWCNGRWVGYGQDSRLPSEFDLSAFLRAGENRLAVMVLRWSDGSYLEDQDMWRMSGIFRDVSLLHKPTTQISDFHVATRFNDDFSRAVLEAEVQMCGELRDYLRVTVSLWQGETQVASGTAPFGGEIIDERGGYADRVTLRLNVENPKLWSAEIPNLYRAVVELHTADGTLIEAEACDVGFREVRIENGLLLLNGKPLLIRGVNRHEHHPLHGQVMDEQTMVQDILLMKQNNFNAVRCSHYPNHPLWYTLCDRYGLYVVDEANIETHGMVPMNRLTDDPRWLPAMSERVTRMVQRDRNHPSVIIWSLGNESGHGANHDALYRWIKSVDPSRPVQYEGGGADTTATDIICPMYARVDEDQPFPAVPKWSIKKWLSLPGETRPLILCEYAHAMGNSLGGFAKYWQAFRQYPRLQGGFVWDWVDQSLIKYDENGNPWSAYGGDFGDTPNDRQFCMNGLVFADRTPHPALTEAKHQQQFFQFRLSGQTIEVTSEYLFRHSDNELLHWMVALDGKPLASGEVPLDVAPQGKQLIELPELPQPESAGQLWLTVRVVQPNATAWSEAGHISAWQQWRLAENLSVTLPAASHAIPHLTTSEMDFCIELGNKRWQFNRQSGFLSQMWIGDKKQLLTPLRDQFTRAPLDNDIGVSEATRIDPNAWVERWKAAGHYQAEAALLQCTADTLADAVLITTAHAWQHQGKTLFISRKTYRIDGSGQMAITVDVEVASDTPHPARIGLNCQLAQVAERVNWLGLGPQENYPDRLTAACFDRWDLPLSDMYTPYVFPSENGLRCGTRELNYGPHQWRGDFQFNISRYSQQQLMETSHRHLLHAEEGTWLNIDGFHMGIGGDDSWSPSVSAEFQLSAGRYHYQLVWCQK
Chain of Phospholipase A2 (P04054 whole entry): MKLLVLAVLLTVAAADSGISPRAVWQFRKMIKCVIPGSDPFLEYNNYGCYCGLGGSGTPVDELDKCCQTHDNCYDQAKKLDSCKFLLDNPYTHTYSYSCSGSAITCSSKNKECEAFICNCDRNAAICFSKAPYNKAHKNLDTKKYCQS
Chain of Complement C1s subcomponent (P09871 16-437 limits assumed): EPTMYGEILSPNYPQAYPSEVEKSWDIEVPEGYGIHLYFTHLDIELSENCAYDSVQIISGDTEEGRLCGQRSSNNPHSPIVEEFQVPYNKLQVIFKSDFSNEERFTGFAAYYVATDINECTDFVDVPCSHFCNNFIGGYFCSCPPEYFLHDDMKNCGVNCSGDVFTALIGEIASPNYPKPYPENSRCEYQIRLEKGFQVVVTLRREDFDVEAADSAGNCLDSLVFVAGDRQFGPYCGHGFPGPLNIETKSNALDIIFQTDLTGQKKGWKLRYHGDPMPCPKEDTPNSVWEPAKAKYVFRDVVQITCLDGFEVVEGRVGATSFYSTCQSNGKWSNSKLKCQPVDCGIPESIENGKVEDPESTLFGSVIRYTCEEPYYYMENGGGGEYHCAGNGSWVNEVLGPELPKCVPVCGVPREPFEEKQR
Chain of Complement C1s subcomponent (P09871 438-688 limits assumed): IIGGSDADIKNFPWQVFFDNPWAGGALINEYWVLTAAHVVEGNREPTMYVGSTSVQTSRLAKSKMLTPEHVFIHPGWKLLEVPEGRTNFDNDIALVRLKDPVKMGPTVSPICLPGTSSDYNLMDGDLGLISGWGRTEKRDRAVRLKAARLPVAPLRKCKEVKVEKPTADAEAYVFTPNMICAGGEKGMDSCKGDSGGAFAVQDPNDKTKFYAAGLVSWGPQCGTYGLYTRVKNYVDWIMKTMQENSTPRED
Chain of DNA (cytosine-5)-methyltransferase 1 (P26358 whole entry): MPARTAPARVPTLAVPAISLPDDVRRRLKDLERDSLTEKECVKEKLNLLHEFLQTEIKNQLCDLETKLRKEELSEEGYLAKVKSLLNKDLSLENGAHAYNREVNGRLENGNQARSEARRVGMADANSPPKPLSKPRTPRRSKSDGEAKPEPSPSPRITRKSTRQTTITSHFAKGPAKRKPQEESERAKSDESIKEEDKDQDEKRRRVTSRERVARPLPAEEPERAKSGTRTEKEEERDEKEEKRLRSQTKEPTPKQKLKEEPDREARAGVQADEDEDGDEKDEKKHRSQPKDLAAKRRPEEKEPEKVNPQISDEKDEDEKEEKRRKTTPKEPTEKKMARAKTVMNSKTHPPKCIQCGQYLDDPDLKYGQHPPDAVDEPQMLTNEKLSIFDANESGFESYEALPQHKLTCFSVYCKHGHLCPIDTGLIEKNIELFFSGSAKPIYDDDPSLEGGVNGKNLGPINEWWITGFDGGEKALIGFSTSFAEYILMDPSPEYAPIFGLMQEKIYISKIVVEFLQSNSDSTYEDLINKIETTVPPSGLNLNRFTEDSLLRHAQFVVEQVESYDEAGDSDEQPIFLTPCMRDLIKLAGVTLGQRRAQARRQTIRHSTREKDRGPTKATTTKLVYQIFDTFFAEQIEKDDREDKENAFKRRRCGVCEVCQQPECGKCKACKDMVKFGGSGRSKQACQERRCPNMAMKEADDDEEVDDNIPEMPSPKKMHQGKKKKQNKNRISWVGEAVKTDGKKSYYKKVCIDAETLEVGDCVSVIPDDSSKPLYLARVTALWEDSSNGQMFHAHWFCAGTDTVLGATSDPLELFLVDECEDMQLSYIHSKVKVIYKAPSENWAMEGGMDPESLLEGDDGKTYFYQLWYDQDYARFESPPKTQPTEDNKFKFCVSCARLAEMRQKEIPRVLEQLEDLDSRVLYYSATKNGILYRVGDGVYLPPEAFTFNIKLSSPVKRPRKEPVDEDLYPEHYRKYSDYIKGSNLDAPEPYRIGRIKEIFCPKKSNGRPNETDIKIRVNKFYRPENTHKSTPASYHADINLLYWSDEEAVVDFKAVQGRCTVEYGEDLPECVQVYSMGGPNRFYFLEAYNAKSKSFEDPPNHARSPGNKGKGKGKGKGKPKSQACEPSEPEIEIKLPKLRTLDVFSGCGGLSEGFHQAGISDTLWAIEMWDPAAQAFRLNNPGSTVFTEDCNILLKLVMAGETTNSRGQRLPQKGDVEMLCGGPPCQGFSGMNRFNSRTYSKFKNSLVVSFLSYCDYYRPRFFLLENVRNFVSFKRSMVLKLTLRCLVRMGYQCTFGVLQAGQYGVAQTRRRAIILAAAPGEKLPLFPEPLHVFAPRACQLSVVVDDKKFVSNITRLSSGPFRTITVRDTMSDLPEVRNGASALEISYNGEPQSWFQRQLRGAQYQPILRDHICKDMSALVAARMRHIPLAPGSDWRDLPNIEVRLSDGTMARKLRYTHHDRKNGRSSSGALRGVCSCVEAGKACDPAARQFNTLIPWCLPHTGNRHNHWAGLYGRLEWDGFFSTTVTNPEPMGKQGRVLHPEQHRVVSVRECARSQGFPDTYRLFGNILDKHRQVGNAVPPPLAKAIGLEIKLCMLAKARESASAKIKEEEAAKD

Take `O=C(Nc1nccs1)c1cc(-c2ccccc2)nn1-c1ccccc1`: in assay [1], the IC50 was > 37.2 µM (inactive).
In the case of `COc1cc2c(cc1OC)-c1cc(Nc3ccccc3C)nc(=O)n1CC2`, the EC50 is < 0.3 µM (active) in assay [2]; 15.6 µM (active) in [3]; > 112 µM (not active) in [4]; 49.5 µM (active) in assay [5]; 0.24 µM (active) in assay [6]; 17.8 µM (active) in assay [7].
On to `COc1cccc(-c2cc(C(=O)Nc3cnn(Cc4ccccc4C)c3)no2)c1`, for which the IC50 in assay [8] was > 100 µM (active).
In the case of `Oc1cccc2cccnc12`, the IC50 was > 40 µM (inactive) in [9] and > 20 µM (inactive) in assay [10].
For the compound `CCOc1cc(/C=C2\C(=O)N(c3nc(-c4ccc(Br)cc4)cs3)N=C2c2ccccc2)ccc1O`, the IC50 was > 66.6 µM (inactive) on Beta-galactosidase; 4.35 µM (active) in assay [11]; 6.97 µM (active) on Phospholipase A2; 2.54 µM (active) in [12]; 43.8 µM (active) on Bcl-2-like protein 10; > 49.8 µM (not active) against Genome polyprotein. In addition, at Cysteine protease ATG4B, the 50% inhibitory concentration (IC50) was 5.08 µM (active). Moreover, the EC50 was 1.78 µM (active) in assay [13] and 3.67 µM (active) in the assay on Streptococcus.
With `O=C(c1ccco1)N1c2ccccc2Sc2ccccc21`, the IC50 on NADPH oxidase 1 is 6.37 µM (active).
Consider `COc1ccc(-c2nc(SC)n(C(=O)c3ccco3)n2)cc1`, for which the figures for the IC50 (in assay [14]; on Prothrombin) were > 50 µM (not active) and 1.14 µM (active), respectively.
`Cc1ccc(S(=O)(=O)N(C)C)cc1NC(=O)c1cncc(Br)c1`: the CC50 in the assay on Vero [15] was > 25 µM (active). Further, the IC50 in the assay with Vero [16] was 32 µM (active); with Vero [17], > 25 µM (active).
